Patent US4377581A, “Chloro- and alkoxy-substituted-2,4-diaminoquinazolines” (Pfizer Inc., priority 1981, dated 1983)
“Also recorded” adds a separate entry of the source. Structures can show the parent of a compound that is named as a salt. Where two headings read alike, the source gives them in different places.

Key:
Water solubility = assay type: physicochemical
[1] = test system: conscious renally hypertensive dogs; assay: Blood pressure lowering in conscious renally hypertensive dogs, oral; assay type: in vivo, dog
Procedure: The antihypertensive activity of the compounds of the invention is shown by their ability to lower the blood pressure of conscious spontaneously hypertensive rats and conscious renally hypertensive dogs, when administered orally at doses of up to 30 mg./kg.
Similarly, at the same dosage 2-[4-(2-hydroxy-2-methylprop-1-yloxycarbonyl)piperazin-1-yl]-4-amino-6-chloro-7-methoxyquinazoline, a particularly preferred compound of the invention, caused a reduction of 40 mm. Hg after one hour which increased only by 20 mm. Hg 6 hours after administration; and another particularly preferred compound: 2-[4-(2-furoyl)-1-piperazinyl]-4-amino-6-chloro-7-methoxyquinazoline effected a reduction in blood pressure of 40 mm. Hg which increased by only 5 mm. Hg six hours after the oral dose (0.2 mg./hg.) had been administered.

[2] = Althuis et al., J. Med. Chem., 20, 146 (1977); cited from earlier work
[3] = literature; cited from earlier work
[4] = water, hydrochloride salts, read-out: water solubility
[5] = Example 10 table, hydrochloride salts except as otherwise noted, solvent not given, read-out: Solubility

Work on `COc1ccc2c(N)nc(N3CCN(C(=O)c4ccco4)CC3)nc2c1OC.Cl` [Example 4, 2-[4-(2-Furoyl)piperazine-1-yl]-4-amino-7,8-dimethoxyquinazoline hydrochloride] yielded a solubility (Water solubility; [4]) of 20 mg/mL.
Work on `COc1ccc2c(N)nc(N3CCN(CCO)CC3)nc2c1OC` [CH2 CH2 OH] yielded a solubility (Water solubility; [5]) of 95 mg/mL.
`CCCOC(=O)N1CCN(c2nc(N)c3ccc(OC)c(OC)c3n2)CC1` [COO(CH2)2 CH3] showed a solubility (Water solubility; [5]) of 140 mg/mL.
Work on `COc1cc2nc(N3CCN(C(=O)c4ccco4)CC3)nc(N)c2cc1Cl.Cl` [Example 8B, 2-[4-(2-Furoyl)piperazine-1-yl]-4-amino-6-chloro-7-methoxyquinazoline hydrochloride] yielded a solubility (Water solubility; [4]) of 5 mg/mL.
In the case of `COc1cc2nc(N3CCN(C(=O)OCC(C)(C)O)CC3)nc(N)c2cc1Cl` [Example 9B, hydrochloride], the solubility (Water solubility; [4]) is reported as 6 mg/mL.
For `COc1cc2nc(N3CCN(C(=O)c4ccco4)CC3)nc(N)c2cc1Cl` [2-[4-(2-furoyl)-1-piperazinyl]-4-amino-6-chloro-7-methoxyquinazoline], the “reduction in blood pressure” value ([1]; 0.2 mg./hg. as printed, time of reduction not given) was 40 mm. Hg, the heart rate change ([1]; 0.2 mg./kg.) was “no significant heart rate change” and the other side effect ([1]; 0.2 mg./kg.) was “no significant heart rate change or other unwanted side effect”. The “increase (return) of the reduced blood pressure 6 hours after administration” value ([1]; 0.2 mg./kg.) was 5 mm. Hg.
`COc1ccc2c(N)nc(N3CCC(Cc4ccccc4)CC3)nc2c1OC.Cl` [Example 13, 2-(4-Benzylpiperidin-1-yl)-4-amino-7,8-dimethoxyquinazoline hydrochloride] gave a solubility (Water solubility; [4]) of 6 mg/mL.
With `COc1ccc2c(N)nc(N3CCN(C(=O)c4ccccc4)CC3)nc2c1OC` the solubility (Water solubility; [5]) was 50 mg/mL.
`COc1ccc2c(N)nc(N3CCN(C(=O)C4CCCO4)CC3)nc2c1OC` (stereo not shown) gave a solubility (Water solubility; [5]) of 150 mg/mL.
In the case of `COc1cc2c(N)nc(N3CCN(C(=O)c4ccco4)CC3)nc2cc1O` [7-0-demethyl derivative], the metabolite of prazosin [2] is listed as “less prevalent metabolite”.
For `COc1c(Cl)cc2c(N)nc(N3CCN(C(=O)c4ccco4)CC3)nc2c1OC.Cl` [Example 8A, 2-[4-(2-Furoyl)piperazine-1-yl]-4-amino-6-chloro-7,8-dimethoxyquinazoline hydrochloride], the solubility (Water solubility; [4]) was 8 mg/mL.
In the case of `COc1ccc2c(N)nc(N3CCCN(C(=O)C4CCCO4)CC3)nc2c1OC.Cl` (stereo not shown) [Example 12, 2-[4-(2-Tetrahydrofuroyl)homopiperazin-1-yl]-4-amino-7,8-dimethoxyquinazoline hydrochloride], the solubility (Water solubility; [4]) is reported as 120 mg/mL.
For `CCOC(=O)N1CCN(c2nc(N)c3ccc(OC)c(OC)c3n2)CC1` [COOCH2 CH3], the solubility (Water solubility; [5]) was 50 mg/mL.
For `COc1cc2nc(N3CCN(C(=O)c4ccco4)CC3)nc(N)c2cc1OC` [prazosin, 2-[4-(2-furoyl)piperazin-1-yl]-4-amino-6,7-dimethoxyquinazoline], the “antihypertensive activity / potency” value [3] is given as “clinically useful antihypertensive agent”.
Work on `COc1ccc2c(N)nc(N3CCN(c4ccccc4)CC3)nc2c1OC` [C6 H5] yielded a solubility (Water solubility; [5]) of 25 mg/mL.
`COc1ccc2c(N)nc(N3CCN(C(=O)OCCC(C)C)CC3)nc2c1OC` [COO(CH2)2 CH(CH3)2] showed a solubility (Water solubility; [5]) of 25 mg/mL.
For `COc1c(Cl)cc2c(N)nc(N3CCN(C(=O)OCC(C)(C)O)CC3)nc2c1OC` [2-[4-(2-hydroxy-2-methylprop-1-yloxycarbonyl)piperazin-1-yl]-4-amino-6-chloro-7,8-dimethoxyquinazoline], the heart rate change ([1]; 0.2 mg./kg.) was “no significant change in heart rate”, the other side effect ([1]; 0.2 mg./kg.) was “no significant change in heart rate or other side effect” and the “decrease of blood pressure after 4 hours” value ([1]; 0.2 mg./kg., 4 hours, statistically significant) was 30 mm. Hg.
For `COc1cc2nc(N3CCN(C(=O)c4ccco4)CC3)nc(N)c2cc1O` [6-0-demethyl derivative], the metabolite of prazosin [2] is given as “major metabolite of prazosin” and the “antihypertensive activity / potency” value [3] is given as “considerably lower blood pressure lowering activity”.
Compound `COc1ccc2c(N)nc(N3CCN(c4cccc(C(F)(F)F)c4)CC3)nc2c1OC` [3-CF3 C6 H4] has a solubility (Water solubility; [5]) of 8 mg/mL.
In the case of `COc1cc2c(N)nc(N3CCN(C(=O)OCC(C)(C)O)CC3)nc2c(OC)c1OC` [Trimazosin], the “antihypertensive activity / potency” value [3] is listed as “active antihypertensive agent; also recorded: less potent than prazosin”.
In the case of `COc1ccc2c(N)nc(N3CCN(C(=O)C4COc5ccccc5O4)CC3)nc2c1OC` (stereo not shown), the solubility (Water solubility; [5]) is reported as 15 mg/mL.
`COc1ccc2c(N)nc(N3CCN(Cc4ccccc4)CC3)nc2c1OC` [CH2 C6 H5] showed a solubility (Water solubility; [5]) of 100 mg/mL.
`CCCCOC(=O)N1CCN(c2nc(N)c3ccc(OC)c(OC)c3n2)CC1` [COO(CH 2)3 CH3] gave a solubility (Water solubility; [5]) of 90 mg/mL.
In the case of `COc1cc2nc(N3CCN(C(=O)OCC(C)(C)O)CC3)nc(N)c2cc1Cl` [2-[4-(2-hydroxy-2-methylprop-1-yloxycarbonyl)piperazin-1-yl]-4-amino-6-chloro-7-methoxyquinazoline], the heart rate change ([1]; 0.2 mg./kg.) is reported as “no significant heart rate change”, the other side effect ([1]; 0.2 mg./kg.) is reported as “no significant heart rate change or other unwanted side effect” and the “increase (return) of the reduced blood pressure 6 hours after administration” value ([1]; 0.2 mg./kg.) is reported as 20 mm. Hg. For the same compound, the “reduction of blood pressure after one hour” value ([1]; same dosage (0.2 mg./kg.), one hour) was 40 mm. Hg.
`COc1c(Cl)cc2c(N)nc(N3CCN(C(=O)OCC(C)(C)O)CC3)nc2c1OC.Cl` [Example 9A, 2-Methyl-2-hydroxypropyl 4-[4-amino-6-chloro-7,8-dimethoxyquinazolin-2-yl]piperazine-1-carboxylate hydrochloride] showed a solubility (Water solubility; [4]) of 35 mg/mL.
For `C=CCN1CCN(c2nc(N)c3ccc(OC)c(OC)c3n2)CC1` [CH2 CHCH2], the solubility (Water solubility; [5]) was 50 mg/mL.
Compound `COc1ccc2c(N)nc(N3CCN(C(=O)c4cccs4)CC3)nc2c1OC` has a solubility (Water solubility; [5]) of 11 mg/mL.
`CCCCCOC(=O)N1CCN(c2nc(N)c3ccc(OC)c(OC)c3n2)CC1` [COO(CH2)4 CH3] showed a solubility (Water solubility; [5]) of 40 mg/mL.
Compound `COc1ccc2c(N)nc(N3CCCN(C(=O)c4ccco4)CC3)nc2c1OC` [Example 11, 2-[4-(2-Furoyl-homopiperazine-1-yl]-4-amino-7,8-dimethoxyquinazoline hydrochloride] has a solubility (Water solubility; [4]) of 30 mg/mL.
`COc1ccc2c(N)nc(N3CCN(C(=O)OCC(C)C)CC3)nc2c1OC` [COOCH2 CH(CH3)2] showed a solubility (Water solubility; [5]) of 40 mg/mL.
For `COC(=O)N1CCN(c2nc(N)c3ccc(OC)c(OC)c3n2)CC1` [COOCH3], the solubility (Water solubility; [5]) was 40 mg/mL.
